According to US20230382940A1, “ANTIVIRAL COMPOUNDS AND METHODS OF MAKING AND USING THE SAME” (Gilead Sciences, Inc., priority 2022, published 2023):

Experiments:
Type in all cases: cell-based
[1] = tested on: Human Rhinovirus 1B (HRV1B); experiment: H1-HeLa HRV-CTG 384-well assay, HRV1B, Example X; settings: Rhinovirus A, 96 h; H1-HeLa cells, HRV1B MOI 0.5, 4 days, Celltiter-Glo; read-out: EC50 H1-HeLa_HRV 1B_HRV-CTG 384-well Assay (per Ex. X)
From the text: (§1) Example X: H1-HeLa HRV-CTG 384-Well Assay
(§2) H1-Hela cell line (ATCC, Manassas, VA, Cat #CRL-1958) was maintained in Dulbecco's […] (DMEM) (Corning, New York, NY, Cat #15-018CM) supplemented with 10% fetal bovine serum (FBS) (Hyclone, Logan, UT, Cat #SH30071-03), and 1× Penicillin-Streptomycin-L-Glutamine (Corning, New York, NY, Cat #30-009-CI). Cells were passaged 2 times per week to maintain sub-confluent densities and were used for experiments at passage 5-30. The Human Rhinovirus 1B (HRV1B) (ATCC, Manassas, VA, Cat #VR-1645), Human Rhinovirus 14 (HRV14) (ATCC, Manassas, VA, Cat #VR-284), and Human Rhinovirus 16 (HRV16) (ATCC, Manassas, VA, Cat #BR-283) was obtained through ATCC. Viral infection was monitored by determining viability of H1-HeLa cells as described below.
(§3) Test molecules are prepared in 100% DMSO in 384-well polypropylene plates (Greiner, Monroe, NC, Cat #784201) with 8 compounds per plate in grouped replicates of 4 at 10 serially diluted concentrations (1:3). The serially diluted compounds were transferred to low dead volume Echo plates (Labcyte, Sunnyvale, CA, Cat #LP-0200).
(§4) The test compounds were spotted to 384-well assay plates (Greiner, Monroe, NC, Cat #781091) at 200 nL per well using an Echo acoustic dispenser (Labcyte, Sunnyvale, CA). H1-HeLa cells were harvested and suspended in DMEM (supplemented with 2% FBS and 1× Penicillin-Streptomycin-L-Glutamine) and seeded to the pre-spotted assay plates at 5,000 cells per well in 30 μL. HRV1B, HRV14, and HRV16 was diluted in DMEM (supplemented with 2% FBS and 1× Penicillin-Streptomycin-L-Glutamine) at 97.1 million Infectious Units (IU) per mL, 151 million IU per mL and 221 million IU per mL respectively. 10 μL of virus per well was added to the assay plates containing cells and compounds, for an MOI of 0.5, 1.0, and 0.25 respectively. The assay plates were incubated for 4 days at 37° C. and 5% CO2. At the end of incubation, Celltiter-Glo (Promega, Madison, WI, Cat #G7573) was prepared. The assay plates and Celltiter-Glo reagent were equilibrated to room temperature for at least 15 minutes. 40 μL per well of Celltiter-Glo reagent was added and the plates were incubated at room temperature for 15 minutes before reading the luminescence signal on an EnVision multimode plate reader (Perkin Elmer, Waltham, MA). Rupintrivir was used as positive control and DMSO was used as negative control. Values were normalized to the positive and negative controls (as 0% and 100% replication, respectively) and data was fitted using non-linear regression analysis by Gilead's dose response tool. The EC50 value for each compound was defined as the concentration reducing viral replication by 50%.

[2] = tested on: Respiratory syncytial virus recombinant with luciferase (RSV-Luc5); experiment: HEp-2 RSV-Luc5 384-well assay (EC50 RSVFLUC Hep2-384 v2), Example V; settings: human respiratory syncytial virus, HEp-2, 72 h, read-out: EC50 RSV FLuc Hep-2 384 V2 (per Ex. V)
From the text: Example V: HEp-2 RSV-Luc5 384-Well Assay (EC50 RSVFLUC Hep2-384 v2)
HEp-2 cell line was purchased from ATCC (Manassas, VA Cat #CCL-23) and maintained in Dulbecco's […] (DMEM) (Corning, New York, NY, Cat #15-018CM) supplemented with 10% fetal bovine serum (FBS) (Hyclone, Logan, UT, Cat #SH30071-03) and 1× Penicillin-Streptomycin-L-Glutamine (Corning, New York, NY, Cat #30-009-C1). Cells were passaged 2 times per week to maintain sub-confluent densities and were used for experiments at passage 5-20. Respiratory syncytial virus recombinant with luciferase (RSV-Luc5) (≥1×107 TCID50/ml) was purchased from Microbiologics (Saint Cloud, MN). Viral replication was determined in HEp-2 cells in the following manner.
as §3, with “Compounds” for “Test molecules”
The test compounds were spotted to 384-well assay plates (Greiner, Monroe, NC, Cat #781091) at 200 nL per well. HEp-2 cells were harvested and suspended in DMEM (supplemented with 10% FBS and 1× Penicillin-Streptomycin-L-Glutamine) and seeded to the pre-spotted assay plates at 4,000 cells per well in 30 μL. RSV-Luc5 viruses were diluted in DMEM (supplemented with 10% FBS and 1× Penicillin-Streptomycin-L-(Glutamine) at 200,000 Infectious Units (IU) per mL and 10 μL per well was added to the assay plates containing cells and compounds, for an MOI=0.5. The assay plates were incubated for 3 days at 37° C. and 5% CO2. At the end of incubation, One-Glo reagent (Promega, Madison, WI, Cat #E6120) was prepared. The assay plates and One-Glo reagent were equilibrated to room temperature for at least 15 minutes. 40 μL per well of One-Glo reagent was added and the plates were incubated at room temp for 15 minutes before reading the luminescence signal on an EnVision multimode plate reader (Perkin Elmer, Waltham, MA). Remdesivir was used as positive control and DMSO was used as negative control. Values were normalized to the positive and negative controls (as 0% and 100% replication, respectively) and data was fitted using non-linear regression analysis by Gilead's dose response tool. The EC50 value for each compound was then determined as the concentration reducing the viral replication by 50%.

[3] = tested on: Human Rhinovirus 16 (HRV16); experiment: H1-HeLa HRV-CTG 384-well assay, HRV16, Example X; settings: Rhinovirus A, 96 h; H1-HeLa cells, HRV16 MOI 0.25, 4 days, Celltiter-Glo; read-out: EC50 H1-HeLa_HRV 16_HRV-CTG 384-well Assay (per Ex. X)
From the text: as §1, §2, §3, §4

[4] = tested on: Respiratory syncytial virus recombinant with luciferase (RSV-Luc5); experiment: NHBE RSV-Luc5 384-well assay (EC50 RSVFLUC NHBE-384 v2), Example W; settings: human respiratory syncytial virus, 72 h, read-out: EC50 RSV FLUC NHBE 384 V2 (per Ex. W)
From the text: Example W: NHBE RSV-Luc5 384-Well Assay (EC50 RSVFLUC NHBE-384 v2)
Normal Human Bronchial Epithelial (NHBE) cells were purchased from Lonza (Walkersville, MD Cat #CC2540) and maintained in BEGM Bronchial Epithelial Cell Growth Medium BulletKit (Lonza CC-3170).
Cells were thawed, expanded, and were used for experiments at passage 2. Respiratory syncytial virus recombinant with luciferase (RSV-Luc5) (≥1×10^7 Infectious Units/mL (IU/mL) determined by TCID50) was purchased from Microbiologics (Saint Cloud, MN). Viral replication was determined in NHBE cells in the following manner.
as §3, with “Compounds” for “Test molecules”
The test compounds were spotted to 384-well assay plates (Greiner, Monroe, NC, Cat #781091) at 200 nL per well using an Echo acoustic dispenser (Labcyte, Sunnyvale, CA). NHBE cells were harvested and suspended in BEGM Bronchial Epithelial Cell Growth Medium BulletKit and seeded to the pre-spotted assay plates at 5,000 cells per well in 30 μL. RSV-Luc5 virus was diluted in BEGM Bronchial Epithelial Cell Growth Medium BulletKit at 500,000 Infectious Units (IU) per mL and 10 μL per well was added to the assay plates containing cells and compounds, for an MOI of 1. The assay plates were incubated for 3 days at 37° C. and 5% CO2. At the end of incubation, One-Glo reagent (Promega, Madison, WI, Cat #E6120) was prepared. The assay plates and One-Glo reagent were equilibrated to room temperature for at least 15 minutes. 40 μL per well of One-Glo reagent was added and the plates were incubated at room temperature for 15 minutes before reading the luminescence signal on an EnVision multimode plate reader (Perkin Elmer, Waltham, MA). Remdesivir was used as positive control and DMSO was used as negative control. Values were normalized to the positive and negative controls (as 0% and 100% replication, respectively) and data was fitted using non-linear regression analysis by Gilead's dose response tool. The EC50 value for each compound was defined as the concentration reducing the viral replication by 50%.

[5] = tested on: Human Rhinovirus 14 (HRV14); experiment: H1-HeLa HRV-CTG 384-well assay, HRV14, Example X; settings: Rhinovirus B, 96 h; H1-HeLa cells, HRV14 MOI 1.0, 4 days, Celltiter-Glo; read-out: EC50 H1-HeLa_HRV 14_HRV-CTG 384-well Assay (per Ex. X)
From the text: as §1, §2, §3, §4

SMILES	EC50 [1] [µM]	EC50 [2] [µM]	EC50 [3] [µM]	EC50 [4] [µM]	EC50 [5] [µM]
CO[C@@H]1O[C@H]2[C@H](c3ccc4c(N)ncnn34)O[C@](C#N)(COC(=O)OCC(C)C)[C@H]2O1 (single isomer, unassigned) [Compound 25]	50	50	50	50	50
CO[C@H]1O[C@H]2[C@H](c3ccc4c(N)ncnn34)O[C@](C#N)(COC(=O)OCC(C)C)[C@H]2O1 (single isomer, unassigned) [Compound 26]	50	50	50	50	50
CC1(OC(=O)OC[C@@]2(C#N)O[C@@H](c3ccc4c(N)ncnn34)[C@H](O)[C@@H]2O)CC1 [Compound 3, ((2R,3S,4R,5S)-5-(4-aminopyrrolo[2,1-f][1,2,4]triazin-7-yl)-2-cyano-3,4-dihydroxytetrahydrofuran-2-yl)methyl (1-methylcyclopropyl) carbonate]	16	20.9	34.5	7.93	24.4
N#C[C@]1(COC(=O)OC2CCCCCCC2)O[C@@H](c2ccc3c(N)ncnn23)[C@H](O)[C@@H]1O [Compound 18, ((2R,3S,4R,5S)-5-(4-aminopyrrolo[2,1-f][1,2,4]triazin-7-yl)-2-cyano-3,4-dihydroxytetrahydrofuran-2-yl)methyl cyclooctyl carbonate]	–	–	–	5.77	–
CC(C)(OC(=O)OC[C@@]1(C#N)O[C@@H](c2ccc3c(N)ncnn23)[C@H](O)[C@@H]1O)C(F)F [Compound 27, ((2R,3S,4R,5S)-5-(4-aminopyrrolo[2,1-f][1,2,4]triazin-7-yl)-2-cyano-3,4-dihydroxytetrahydrofuran-2-yl)methyl (1,1-difluoro-2-methylpropan-2-yl) carbonate]	–	–	–	8.03	–
CC(C)OC(=O)Nc1ncnn2c([C@@H]3O[C@](C#N)(COC(=O)OC(C)C)[C@@H](OC(=O)OC(C)C)[C@H]3OC(=O)OC(C)C)ccc12 [Compound 42, Isopropyl (7-((2S,3S,4S,5R)-5-cyano-3,4-bis((isopropoxycarbonyl)oxy)-5-(((isopropoxycarbonyl)oxy)methyl)tetrahydrofuran-2-yl)pyrrolo[2,1-f][1,2,4]triazin-4-yl)carbamate]	–	–	–	26.1	–
CC(C)OC(=O)OC[C@@]1(C#N)O[C@@H](c2ccc3c(N)ncnn23)[C@H](OC(=O)OC(C)C)[C@@H]1OC(=O)OC(C)C [Compound 43, (2R,3S,4S,5S)-5-(4-aminopyrrolo[2,1-f][1,2,4]triazin-7-yl)-2-cyano-2-(((isopropoxycarbonyl)oxy)methyl)tetrahydrofuran-3,4-diyl diisopropyl bis(carbonate)]	–	–	–	6.99	–
COC(=O)Nc1ncnn2c([C@@H]3O[C@](C#N)(COC(=O)OC)[C@@H](OC(=O)OC)[C@H]3OC(=O)OC)ccc12 [Compound 44, Methyl (7-((2S,3S,4S,5R)-5-cyano-3,4-bis((methoxycarbonyl)oxy)-5-(((methoxycarbonyl)oxy)methyl)tetrahydrofuran-2-yl)pyrrolo[2,1-f][1,2,4]triazin-4-yl)carbamate]	–	–	–	15.8	–
COC(=O)OC[C@@]1(C#N)O[C@@H](c2ccc3c(N)ncnn23)[C@H](OC(=O)OC)[C@@H]1OC(=O)OC [Compound 45, (2R,3S,4S,5S)-5-(4-aminopyrrolo[2,1-f][1,2,4]triazin-7-yl)-2-cyano-2-(((methoxycarbonyl)oxy)methyl)tetrahydrofuran-3,4-diyl dimethyl bis(carbonate)]	–	–	–	29.4	–
